Results published in US8586622B2, “Laminin-332 product on stimulating composition” (Shiseido Company, Ltd., priority 2009, dated 2013).
Where two headings read alike, the source gives them in different places.

What was measured:
[1] = test system: HaCaT cells; assay: Quantification of number of viable HaCaT cells (alamarBlue); conditions: for fluorescence intensity of alamarBlue: 1 μM
Procedure: (§1) Human epidermal-derived HaCaT cells (H. Hans, et al., Experimental Cell Research, 239:399 (1998)) and human keratinocyte-derived KC cells (Sanko Junyaku Co., Ltd., manufacturer: LONZA Walkersville Inc.) were used. The cells were inoculated to a 24-well plate to have 4×10^4 cells per well. The cells were then cultured for 24 hours in a medium for cell culture (D-MEM (1 g/L glucose), manufactured by Wako Pure Chemical Industries, Ltd.) to which 0.1% bovine serum albumin (BSA) is supplemented (hereinafter, referred to as a “standard medium”) in a 5% CO2 and saturated water vapor atmosphere at 37° C. (degrees Celsius).
(§2) D-hydroxyproline used in this example was 4-cis-D-hydroxyproline.
(§3) After collecting the culture medium, the cells were washed with PBS and added with alamarBlue (trademark: Biosource International, Inc.) to have final concentration of 10%. Two hours later, according to the methods by Ahmed S. A. et al., (J. Immunol. Method., 170, 211-224 (1994)) and the instructions provided by the manufacturer, fluorescent intensity of the alamarBlue solution was measured with excitation wavelength of 544 nm and emission wavelength of 590 nm.

[2] = test system: laminin-332 production in HaCaT cells; assay: Laminin-332 concentration in HaCaT culture supernatant after addition of various amino acids, Example 2; assay type: cell-based, human; conditions: for effect on stimulating production of laminin-332 (conclusion in words): Examples 1 and 2, KC and HaCaT cells; for concentration of laminin-332 in the culture supernatant / stimulation of the production of laminin-332 (in words): HaCaT cells; for concentration of laminin-332 in the culture supernatant: 24 hours, negative control 1.5-1.8 ng/mL; for stimulation of the production of laminin-332 (in words): 10 nM, 100 nM, 1000 nM
Procedure: (§4) After completing the cell culture, culture medium was collected and centrifuged at 3000 rpm for five minutes. Concentration of laminin-332 in the supernatant was measured by ELISA (Amano, S., et al., J. Immunol. Methods, 224:161 (1999)). The ELISA used was sandwich type which utilizes biotinylated conjugate of BM165, i.e., a monoclonal antibody against α (alpha) 3 chain of laminin-5, and 6F12, i.e., a monoclonal antibody against β (beta)3 chain of laminin-5, and detection was carried out by utilizing avidin D labeled with a horseradish peroxidase (Vector Laboratories, Catalogue No. A-2004). PBS was used as a control.
Cell culture was carried out in the same manner as the Example 1 by using HaCaT cells. After that, the medium was switched to the standard medium added with amino acids such as L- or D-alanine, L- or D-hydroxyproline, L- or D-aspartic acid, L- or D-asparagine, L- or D-proline, or L- or D-serine with the concentration of 10 nM, 100 nM, or 1000 nM, and cultured for 24 hours. The standard medium to which no amino acid had been added was used as a negative control. […] The production amount of laminin-332 was measured in the same manner as the Example 1.
The vertical line of the graph in FIG. 7 represents the concentrations (ng/mL) of laminin-332 in the culture supernatant in each well. The error bars for each experimental condition indicate the standard deviations of experimentally measured values obtained by repeating the experiment four times under the identical condition.

[3] = test system: laminin-332 production in HaCaT cells; assay: Laminin-332 production in HaCaT cells (sandwich ELISA, relative to cell number), Example 1; assay type: cell-based, human; conditions: 1 μM; for relative value of laminin-332 concentration compared to the number of cells: 24 hours, negative control 0.04
Procedure: as §4
The vertical line of the graph in FIG. 5 represents, the relative values of laminin-332 concentration compared to the number of cells that are present in culture supernatant in each well. The error bars for each experimental condition indicate the standard deviations of experimentally measured values obtained by repeating the experiment three times under the identical condition.

[4] = test system: laminin-332 production in KC cells; assay: Laminin-332 production in KC cells (sandwich ELISA of culture supernatant, relative to cell number); assay type: cell-based, human; conditions: 1 μM; for relative value of laminin-332 concentration compared to the number of cells: 24 hours, negative control 0.35
Procedure: as §1, §2
PBS was used as a control.
as §3

[5] = test system: KC cells; assay: Quantification of number of viable KC cells (alamarBlue); assay type: cell-based, human; conditions: for relative fluorescence intensity of alamarBlue: 1 μM, 24 hours, negative control 50; for cytotoxicity against KC cells: alamarBlue, no significant difference to negative control by Tukey-Kramer's test
Procedure: as §1, §2, §3

[6] = HaCaT cells, 24 hours, negative control 300
[7] = HaCaT cells, alamarBlue, no significant difference to negative control by Tukey-Kramer's test

| Structure (SMILES) | fluorescence intensity of alamarBlue [1, 6] | cytotoxicity for HaCaT cells [1, 7] | effect on stimulating production of laminin-332 (conclusion in words) [2] | concentration of laminin-332 in the culture supernatant ([2]; amino acid 10 nM) | concentration of laminin-332 in the culture supernatant ([2]; amino acid 100 nM) | concentration of laminin-332 in the culture supernatant ([2]; amino acid 1000 nM) | relative value of laminin-332 concentration compared to the number of cells [3] | relative value of laminin-332 concentration compared to the number of cells [4] | stimulation of laminin-332 production in KC cells (in words) ([4]; p less than 1% vs negative control by Tukey-Kramer's test) | cytotoxicity for HaCaT cells [1] | fluorescence intensity of alamarBlue ([1]; human, 24 h) | stimulation of laminin-332 production in HaCaT cells (in words) ([3]; p less than 1% vs negative control by Scheffe's F test) | relative fluorescence intensity of alamarBlue [5] | cytotoxicity against KC cells [5] | stimulation of the production of laminin-332 (in words) [2] |
| --- | --- | --- | --- | --- | --- | --- | --- | --- | --- | --- | --- | --- | --- | --- | --- |
| O=C(O)[C@H]1C[C@@H](O)CN1 (relative stereo) [D-hydroxyproline, 4-cis-D-hydroxyproline] | 280 | no cytotoxicity | effect on stimulating production of laminin-332 was observed | 1.5 ng/mL | 3.3 ng/mL | 4.4 ng/mL | 0.065 | – | – | – | – | – | – | – | – |
| C[C@@H](N)C(=O)O [D-alanine] | – | – | effect on stimulating production of laminin-332 was observed | 1.7 ng/mL | 3.4 ng/mL | 4.8 ng/mL | 0.11 | 0.50 | stimulated production of laminin-332 | no cytotoxicity | 250 | stimulated production of laminin-332 | 45 | no cytotoxicity | – |
| NC(=O)C[C@@H](N)C(=O)O [D-asparagine] | – | – | – | 1.5 ng/mL | 1.5 ng/mL | 1.5 ng/mL | – | – | – | – | – | – | – | – | do not stimulate the production of laminin-332 |
| N[C@H](CC(=O)O)C(=O)O [D-aspartic acid] | – | – | – | 1.9 ng/mL | 1.9 ng/mL | 1.7 ng/mL | – | – | – | – | – | – | – | – | do not stimulate the production of laminin-332 |
| O=C(O)[C@H]1CCCN1 [D-proline] | – | – | – | 2.0 ng/mL | 1.9 ng/mL | 1.9 ng/mL | – | – | – | – | – | – | – | – | do not stimulate the production of laminin-332 |
| N[C@H](CO)C(=O)O [D-serine] | – | – | – | 1.8 ng/mL | 1.8 ng/mL | 1.8 ng/mL | – | – | – | – | – | – | – | – | do not stimulate the production of laminin-332 |
| C[C@H](N)C(=O)O [L-alanine] | – | – | – | 1.7 ng/mL | 2.3 ng/mL | 2.8 ng/mL | 0.07 | 0.40 | – | no cytotoxicity | 250 | – | 40 | no cytotoxicity | – |
| NC(=O)C[C@H](N)C(=O)O [L-asparagine] | – | – | – | 1.6 ng/mL | 1.5 ng/mL | 1.6 ng/mL | – | – | – | – | – | – | – | – | do not stimulate the production of laminin-332 |
| N[C@@H](CC(=O)O)C(=O)O [L-aspartic acid] | – | – | – | 1.8 ng/mL | 1.8 ng/mL | 2.0 ng/mL | – | – | – | – | – | – | – | – | do not stimulate the production of laminin-332 |
| O=C(O)[C@@H]1C[C@@H](O)CN1 [L-hydroxyproline] | 280 | no cytotoxicity | – | 1.5 ng/mL | 2.3 ng/mL | 2.7 ng/mL | 0.05 | – | – | – | – | – | – | – | – |
| O=C(O)[C@@H]1CCCN1 [L-proline] | – | – | – | 1.8 ng/mL | 1.9 ng/mL | 1.9 ng/mL | – | – | – | – | – | – | – | – | do not stimulate the production of laminin-332 |
| N[C@@H](CO)C(=O)O [L-serine] | – | – | – | 1.8 ng/mL | 1.9 ng/mL | 1.9 ng/mL | – | – | – | – | – | – | – | – | do not stimulate the production of laminin-332 |
